Results reported in patent US6737383B1, “Herbicidal oxadiazolidines” (priority 1999, dated 2004).

Legend:
rice = test: Test B flood test rice; type: in vivo, Oryza sativa
Method in brief: (§1)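 Read-out is a visual response score from 0 (no effect) to 10 (complete control), assigned by comparison with untreated controls. Treatment was applied at the 2-leaf stage, and plants stayed in the greenhouse for twelve to sixteen days before scoring.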

bamyardgrass = test: Test B flood test barnyardgrass; type: in vivo, Echinochloa crus-galli
Method in brief: as §1

soybean = test: Test B pre/postemergence soybean; type: in vivo, Glycine max
Method in brief: (§2)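 Herbicidal effect was estimated by eye on a ten-point control scale after plants spent twelve to sixteen days in a greenhouse following soil or foliar treatment. Foliar sprays targeted plants at one to four leaves; all doses were formulated in a non-phytotoxic solvent with surfactant.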

duck salad = test: Test B flood test duck salad; type: in vivo, Heteranthera limosa
Method in brief: as §1

sugar beet = test: Test B pre/postemergence sugar beet; type: in vivo, Beta vulgaris
Method in brief: as §2

crabgrass = test: Test B pre/postemergence crabgrass; type: in vivo, Digitaria sanguinalis
Method in brief: as §2

wild oat = test: Test B pre/postemergence wild oat; type: in vivo, Avena fatua
Method in brief: as §2

rape = test: Test B pre/postemergence rape; type: in vivo, Brassica napus
Method in brief: as §2

surinam grass = test: Test B pre/postemergence surinam grass; type: in vivo, Brachiaria decumbens
Method in brief: as §2

cocklebur = test: Test B pre/postemergence cocklebur; type: in vivo, Xanthium strumarium
Method in brief: as §2

morningglory = test: Test B pre/postemergence morningglory; type: in vivo, Ipomoea hederacea
Method in brief: as §2

bedstraw = test: Test B pre/postemergence bedstraw; type: in vivo, Galium aparine
Method in brief: as §2

pigweed = test: Test B pre/postemergence pigweed; type: in vivo, Amaranthus retroflexus
Method in brief: as §2

corn = test: Test B pre/postemergence corn; type: in vivo, Zea mays
Method in brief: as §2

velvetleaf = test: Test B pre/postemergence velvetleaf; type: in vivo, Abutilon theophrasti
Method in brief: as §2

smallflower flatsedge = test: Test B flood test smallflower flatsedge; type: in vivo, Cyperus difformis
Method in brief: as §1

[1] = Postemergence (flood test species), Rate 125 g/ha, scale of 0 to 10 where 0 is no effect and 10 is complete control
[2] = Rate 62 g/ha, Postemergence section, flood test species, scale of 0 to 10 where 0 is no effect and 10 is complete control
[3] = Rate 250 g/ha, Postemergence (flood test), scale 0 to 10, 0 is no effect, 10 is complete control
[4] = Rate 500 g/ha, listed under Postemergence (flood test species), scale 0 to 10
[5] = Postemergence, Rate 125 g/ha, scale of 0 to 10 where 0 is no effect and 10 is complete control
[6] = Preemergence, Rate 62 g/ha, scale of 0 to 10 where 0 is no effect and 10 is complete control
[7] = Preemergence, Rate 125 g/ha, 0 is no effect, 10 is complete control
[8] = Preemergence, Rate 250 g/ha, scale 0 to 10, 0 is no effect, 10 is complete control
[9] = Preemergence, Rate 500 g/ha, scale 0 to 10 (0 no effect, 10 complete control)
[10] = Rate 62 g/ha, Postemergence, scale of 0 to 10 where 0 is no effect and 10 is complete control
[11] = Rate 250 g/ha, Postemergence, scale 0 to 10, 0 is no effect, 10 is complete control
[12] = Rate 500 g/ha, Postemergence, scale 0 to 10

SMILES: CC(C)N(C(=O)n1oc(=O)n(N(C)C)c1=O)c1ccc(F)cc1 [Compound 170]
- Rice plant response rating (rice; [1]): 0
- Rice plant response rating (rice; [2]): 0
- Plant response rating, Rice (rice; [3]): 0
- Rice plant response rating (rice; [4]): 0
- Barnyardgrass plant response rating (bamyardgrass; [1]): 0
- Barnyardgrass plant response rating (bamyardgrass; [2]): 0
- Plant response rating, Barnyardgrass (bamyardgrass; [3]): 0
- Barnyardgrass plant response rating (bamyardgrass; [4]): 0
- Soybean plant response rating (soybean; [5]): 3
- Soybean plant response rating (soybean; [6]): 0
- Soybean plant response rating (0 to 10 scale) (soybean; [7]): 1
- Soybean plant response rating (soybean; [8]): 4
- Soybean plant response rating (soybean; [9]): 9
- Soybean plant response rating (soybean; [10]): 2
- Plant response rating, Soybean (soybean; [11]): 4
- Soybean plant response rating (soybean; [12]): 7
- Ducksalad plant response rating (duck salad; [1]): 0
- Ducksalad plant response rating (duck salad; [2]): 0
- Plant response rating, Ducksalad (duck salad; [3]): 0
- Ducksalad plant response rating (duck salad; [4]): 0
- Sugarbeets plant response rating (sugar beet; [5]): 0
- Sugarbeets plant response rating (sugar beet; [6]): 4
- Sugarbeets plant response rating (0 to 10 scale) (sugar beet; [7]): 8
- Sugarbeets plant response rating (sugar beet; [8]): 8
- Sugarbeets plant response rating (sugar beet; [9]): 10
- Sugarbeets plant response rating (sugar beet; [10]): 0
- Plant response rating, Sugarbeets (sugar beet; [11]): 2
- Sugarbeets plant response rating (sugar beet; [12]): 4
- Crabgrass plant response rating (crabgrass; [5]): 9
- Crabgrass plant response rating (crabgrass; [6]): 8
- Crabgrass plant response rating (0 to 10 scale) (crabgrass; [7]): 10
- Crabgrass plant response rating (crabgrass; [8]): 10
- Crabgrass plant response rating (crabgrass; [9]): 10
- Crabgrass plant response rating (crabgrass; [10]): 8
- Plant response rating, Crabgrass (crabgrass; [11]): 9
- Crabgrass plant response rating (crabgrass; [12]): 9
- Wild oats plant response rating (wild oat; [6]): 7
- Wild oats plant response rating (0 to 10 scale) (wild oat; [7]): 9
- Wild oats plant response rating (wild oat; [8]): 10
- Wild oats plant response rating (wild oat; [9]): 10
- Plant response rating, Wild oats (wild oat; [11]): 3
- Wild oats plant response rating (wild oat; [12]): 6
- Rape plant response rating (rape; [5]): 0
- Rape plant response rating (rape; [6]): 2
- Rape plant response rating (0 to 10 scale) (rape; [7]): 8
- Rape plant response rating (rape; [8]): 10
- Rape plant response rating (rape; [9]): 10
- Rape plant response rating (rape; [10]): 0
- Plant response rating, Rape (rape; [11]): 0
- Rape plant response rating (rape; [12]): 3
- B. signalgrass plant response rating (surinam grass; [5]): 6
- B. signalgrass plant response rating (surinam grass; [6]): 2
- B. signalgrass plant response rating (0 to 10 scale) (surinam grass; [7]): 9
- B. signalgrass plant response rating (surinam grass; [8]): 10
- B. signalgrass plant response rating (surinam grass; [9]): 10
- B. signalgrass plant response rating (surinam grass; [10]): 3
- Plant response rating, B. signalgrass (surinam grass; [11]): 9
- B. signalgrass plant response rating (surinam grass; Rate 500 g/ha, Postemergence, scale 0 to 10, 0 no effect, 10 complete control): 10
- Cocklebur plant response rating (cocklebur; [5]): 0
- Cocklebur plant response rating (cocklebur; [6]): 0
- Cocklebur plant response rating (0 to 10 scale) (cocklebur; [7]): 0
- Cocklebur plant response rating (cocklebur; [8]): 0
- Cocklebur plant response rating (cocklebur; [9]): 9
- Cocklebur plant response rating (cocklebur; [10]): 0
- Plant response rating, Cocklebur (cocklebur; [11]): 0
- Cocklebur plant response rating (cocklebur; [12]): 0
- Morningglory plant response rating (morningglory; [5]): 1
- Morningglory plant response rating (morningglory; [6]): 0
- Morningglory plant response rating (0 to 10 scale) (morningglory; [7]): 3
- Morningglory plant response rating (morningglory; [8]): 6
- Morningglory plant response rating (morningglory; [9]): 10
- Morningglory plant response rating (morningglory; [10]): 0
- Plant response rating, Morningglory (morningglory; [11]): 1
- Morningglory plant response rating (morningglory; [12]): 2
- Bedstraw plant response rating (bedstraw; [5]): 0
- Bedstraw plant response rating (bedstraw; [6]): 0
- Bedstraw plant response rating (0 to 10 scale) (bedstraw; [7]): 0
- Bedstraw plant response rating (bedstraw; [8]): 6
- Bedstraw plant response rating (bedstraw; [9]): 9
- Bedstraw plant response rating (bedstraw; [10]): 0
- Plant response rating, Bedstraw (bedstraw; [11]): 0
- Bedstraw plant response rating (bedstraw; [12]): 2
- Redroot pigweed plant response rating (pigweed; [5]): 0
- Redroot pigweed plant response rating (pigweed; [6]): 10
- Redroot pigweed plant response rating (0 to 10 scale) (pigweed; [7]): 10
- Redroot pigweed plant response rating (pigweed; [8]): 10
- Redroot pigweed plant response rating (pigweed; [9]): 10
- Redroot pigweed plant response rating (pigweed; [10]): 0
- Plant response rating, Redroot pigweed (pigweed; [11]): 6
- Redroot pigweed plant response rating (pigweed; [12]): 6
- Corn plant response rating (corn; [5]): 0
- Corn plant response rating (corn; [6]): 0
- Corn plant response rating (0 to 10 scale) (corn; [7]): 2
- Corn plant response rating (corn; [8]): 6
- Corn plant response rating (corn; [9]): 9
- Corn plant response rating (corn; [10]): 0
- Plant response rating, Corn (corn; [11]): 0
- Corn plant response rating (corn; [12]): 0
- Velvetleaf plant response rating (velvetleaf; [6]): 3
- Velvetleaf plant response rating (0 to 10 scale) (velvetleaf; [7]): 7
- Velvetleaf plant response rating (velvetleaf; [8]): 10
- Velvetleaf plant response rating (velvetleaf; [9]): 10
- Plant response rating, Velvetleaf (velvetleaf; [11]): 5
- Velvetleaf plant response rating (velvetleaf; [12]): 5
- S. Flatsedge plant response rating (smallflower flatsedge; [1]): 0
- S. Flatsedge plant response rating (smallflower flatsedge; [2]): 0
- Plant response rating, S. Flatsedge (smallflower flatsedge; [3]): 0
- S. Flatsedge plant response rating (smallflower flatsedge; [4]): 0
